Assay [1] concerns C57/Black female mice. In words: Glucose tolerance test with insulin and commercial AT (Example 2). The assay is classed as in vivo. On the procedure: C57/Black female mice weighing 22-23 g were fasted for 16 hours. Four animals were used for each of four treatment groups. The first and fourth treatment group received intraperitoneal injections of 1500 μg commercially obtained AT. Exactly 23 hours and 45 minutes after the AT was administered to the first and fourth treatment group, the animals in the first and second treatment group received 0.5 I.U. of insulin. Exactly 15 minutes after the insulin was administered (i.e., 24 hours after the AT was administered to the first treatment group), glucose (3 g/kg) was injected intraperitoneally into the first, second and third treatment groups. Blood samples were taken from the eyes (canthus), and glucose concentrations in whole blood samples were immediately measured with the fast Glucose C test (Wako Chemicals USA Inc., Richmond, Va., USA). The data presented are the mean ±S.D. of four determinations, one with each animal.

Assay [2] concerns differentiated rat L6 muscle cells. The experiment in a line: Synthesis of [14C]total lipid from radiolabeled glucose. To be noted: FIG. 4C, 5 hours. The assay is classed as cell-based. On the procedure:
(§1) Rat L6 skeletal muscle cells were obtained from the American Type Culture Collection, Rockville, Md. L6 cell monolayers were induced to differentiate in Minimal Essential Medium (MEM) containing 2% (v/v) fetal bovine serum (FBS) and 1% (v/v) antibiotic/antimycotic solution. The cells were fed fresh medium every 48 hours. Myoblast differentiation, which occurred by about the 7-9th day, was monitored by phase contrast microscopy. Differentiated L6 cells are widely used models for studying glucose metabolism in the skeletal muscle. The present study was focused on these cells, because skeletal muscle accounts for about 70-80% of total blood glucose metabolism in the human body.
To examine cellular glucose uptake and metabolism, differentiated (attached) cells in 12-well plates were incubated at 37° C. in a CO2 incubator (95% air: 5% CO2) with D-[^14C]glucose (1 μCi/mL) in 2% FBS-containing medium containing 5.5 mM unlabeled glucose for 0.5-6 hours as indicated at the corresponding Figures. […] Cells were washed twice with 3 ml medium to remove traces of medium containing unincorporated radioactivity. […]
Aliquots of the upper and lower phases were taken to scintillation vials to determine the amounts of radiolabeled glucose and total lipids, respectively, by liquid scintillation counting. […] No additional radioactivity could be removed from the well by neutralized 30% KOH. […]

For assay [3] the test system is unchanged. In words: Synthesis of [14C]glycogen from radiolabeled glucose. The format is cell-based. On the procedure:
as §1
To examine cellular glucose uptake and metabolism, differentiated (attached) cells in 12-well plates were incubated at 37° C. in a CO2 incubator (95% air: 5% CO2) with D-[^14C]glucose (1 μCi/mL) in 2% FBS-containing medium containing 5.5 mM unlabeled glucose for 0.5-6 hours as indicated at the corresponding Figures. At the termination of incubation, the medium was removed. An aliquot of the medium was taken to determine the loss of [^14C]glucose from the medium which corresponds to its uptake by cells. Cells were washed twice with 3 ml medium to remove traces of medium containing unincorporated radioactivity. Ice-cold 99.8% methanol/0.2% water (v/v) mixture (1 ml) was then added to the monolayers and cells were extracted for 2 hours at −20° C. […] The methanol phase (1 ml) and a following 1 ml methanol wash were added to 2 ml chloroform followed by the addition of 3 ml water. Of the resulting two phases (separation was facilitated by brief centrifugation), the lower phase contained the total radiolabeled lipids, while the upper phase contained [^14C]glucose.
Aliquots of the upper and lower phases were taken to scintillation vials to determine the amounts of radiolabeled glucose and total lipids, respectively, by liquid scintillation counting. Precipitated [^14C]glycogen was suspended in 0.75 ml of 1 M NaOH and transferred to scintillation vial. This procedure was repeated with another 0.75 ml aliquot of NaOH. To neutralize the suspension, […] (approximately 150 μL) was then added to the vials, followed by the addition of 8.5 ml Ecolume (scintillation fluid). While the 1 M NaOH suspension contained some particulate material (mostly protein which was not labeled with radiolabeled glucose), no precipitate remained in the suspension after addition of Ecolume. […] No additional radioactivity could be removed from the well by neutralized 30% KOH.
In some experiments, a published procedure [Huang, D., Cheung, A. T., Parsons, J. T. and Bryer-Ash, M. “Focal adhesion kinase (FAK) regulates insulin-stimulated glycogen synthesis in hepatocytes.” J. Biol. Chem. 277, 18151-18160, (2002)] was used to determine glucose incorporation into glycogen in a method similar to the one described above. After incubations with [^14C] glucose, cells were solubilized with 20% KOH for 2 hours. Lysates were extracted with 8% […], neutralized with 2.0 M HCl, then boiled for 5 min. The total glycogen was precipitated by the addition of 80% ethanol (final concentration) for 2 hours at −20° C. followed by centrifugation at 1100×g for 10 min. This step was repeated.
After the pellets had been re-dissolved in distilled water, the samples were precipitated again using the same method described above, and yielded essentially the same results. In subsequent experiments the initial methanol precipitation method described above was used because it allowed for analysis of cellular glucose, glycogen and lipids from the same sample.
Three groups of differentiated L6 cells, incubated in 12-well plates in 2% FBS-containing medium, were treated as follows. A first control group ([…]) was untreated. A second group (▴) was treated with 500 nM insulin for 30 min. A third group (▪) was treated first with 0.4 mg/ml of AT followed by an addition of 500 nM insulin for 30 min. […]

In assay [4] the test system is C57/Black female mice. In words: Glucose tolerance test with purified AT alone (Example 4). The format is in vivo. To be noted: mice fasted 24 h; for Glucose level: purified AT 1200 μg i.p. 24 h before glucose 3 g/kg i.p., mean ± S.D., n=4. On the procedure: C57/Black female mice, weighing 22-25 g were fasted for 24 hours. Four animals were used for each of two groups. The first group received intraperitoneal injections of 1200 μg purified AT, i.e. AT purified by the procedure of Example 1. Exactly 24 hours after the AT was administered to the first group, glucose (3 g/kg) was injected intraperitoneally into mice in both groups. Blood samples were immediately measured with the fast Glucose C test (Wako Chemicals Inc. Richmond, Va., USA). The experiment was repeated a second time.
The data presented for each experiment are the mean ±S.D. of four determinations, one with each animal.

Setting [5] is: highly purified AT 1200 μg i.p. 24 h before glucose 3 g/kg i.p.

For the substance α1-antitrypsin [AT], the “Effect of AT on the action of insulin on blood glucose level” value in the assay on C57/Black female mice [1] (FIG. 2, AT 1.5 mg/mouse i.p. 24 h prior, insulin 0.5 I.U., glucose 3 g/kg i.p.) was “blocked the action of insulin”. In the assay on C57/Black female mice [1] (FIG. 2 insert, AT 1.5 mg/mouse i.p., no insulin, no glucose (fourth treatment group)), the “Effect of AT alone on the blood glucose level” value is recorded as “no significant effect on the blood glucose level”. The “Effect of AT on cellular level of [14C]total lipid in the absence of insulin” value in assay [2] (0.05 to 0.4 mg/ml AT) is reported as “did not significantly affect”. In addition, in assay [2] (0.2 to 0.4 mg/ml AT, 500 nM insulin), the “Decrease of synthesis of [14C]total lipid by AT in the presence of insulin” value was “at least 50%”. Further, the “Effect of AT on the insulin effect on [14C]glycogen, short incubation” value in assay [3] (0.4 mg/ml AT, 500 nM insulin, 30 min incubation) is reported as “no such inhibitory effects”. In addition, the “Effect of AT on insulin-stimulated synthesis of [14C]glycogen” value in assay [3] (FIG. 3B, 0.4 mg/ml purified AT, incubations for 2 hrs or 6 hours) is “inhibited both insulin effects”. The “Effect of AT on cellular level of [14C]glycogen in the absence of insulin” value in assay [3] (FIG. 4B, 0.05 to 0.4 mg/ml AT, 5 hours) is recorded as “did not significantly affect”. Further, in assay [3] (FIG. 4B, 0.2 to 0.4 mg/ml AT, 500 nM insulin, 5 hours), the “Decrease of synthesis of cellular [14C]glycogen by AT in the presence of insulin” value was “at least 50%”. Moreover, in assay [3] (FIG. 5, 0.4 mg/ml AT, 500 nM insulin, 5 hours), the “Inhibition by AT of the insulin effect on [14C]glycogen synthesis” value is given as “about 70%”. Also, the Glucose level is 2.3 ± 0.3 mM in the assay with C57/Black female mice [4] (Experiment 1, 0 min); 8.5 ± 0.6 mM in the assay on C57/Black female mice [4] (Experiment 1, 30 min); 7.1 ± 0.5 mM with C57/Black female mice [4] (Experiment 1, 60 min); 6.1 ± 0.4 mM with C57/Black female mice [4] (Experiment 1, 120 min); 4.7 ± 0.5 mM in the assay on C57/Black female mice [4] (Experiment 1, 180 min); 2.7 ± 0.3 mM in the assay on C57/Black female mice [4] (Experiment 2, 0 min). Also, the Glucose level came to 7.9 ± 0.3 mM in the assay with C57/Black female mice [4] (Experiment 2, 30 min); 6.5 ± 0.5 mM in the assay with C57/Black female mice [4] (Experiment 2, 60 min); 5.9 ± 0.4 mM in the assay on C57/Black female mice [4] (Experiment 2, 120 min); 4.5 ± 0.4 mM in the assay with C57/Black female mice [4] (Experiment 2, 180 min). Besides, in the assay on C57/Black female mice [4] (setting [5]), the “Effect of AT on blood glucose level in the first 60 min after glucose” value is reported as “no major effects in the first 60 min”. The “Effect of AT on return of blood glucose level to near-normal level during the next 120 min” value with C57/Black female mice [4] (setting [5]) is “clearly delayed return of blood glucose level to near-normal level”.

The values above are taken from patent US20080279843A1, “Method For Improving Insulin Sensitivity By Administering an Inhibitor of Antitrypsin” (Essential SkinCare, LLC, priority 2003, published 2008).
